Results taken from article PMC7897990, “TriTOX: A novel Trichomonas vaginalis assay platform for high-throughput screening of compound libraries” (International Journal for Parasitology: Drugs and Drug …, 2021).
Where two headings read alike, the source gives them in different places. Starred links: 1 amine or outer side, 2 acyl side, 3 side chain; linkers in the order of their positions; H or OH if unused. Positions of bridges follow the written chain, without caps; N, C: chain ends. Non-standard residues stand in square brackets, D forms with d. Residues, ends and D or L forms follow the SMILES beside them. *: point of attachment. Orn(4R-OH,5R-OH) = O=C([C@H](C[C@@H](O)[C@@H](O)N[*:3])N[*:1])[*:2]; Tetradecanoyl(10R,12S-Me2) = CC[C@H](C)C[C@H](C)CCCCCCCCC(=O)*; hTyr(3S-OH,4S-OH) = N[C@H](C(=O)O)[C@H](O)[C@@H](O)c1ccc(O)cc1; Gln(3R-OH) = NC(=O)C[C@@H](O)[C@H](N)C(=O)O; Pro(3S-OH) = O=C(O)[C@H]1NCC[C@@H]1O; Hyp = O=C(O)[C@@H]1C[C@@H](O)CN1

System: Trichomonas vaginalis G3 trophozoites
Conditions: for T.vaginalis_Absorbance_Rep1: replicate 1, raw absorbance; for T.vaginalis_Absorbance_Rep2: replicate 2, raw absorbance; for T. vaginalis HTS result in words: 384-well, 25 μL, 10,000 cells/mL, 48 h, biological duplicates, hit = >50% inhibition
[1] = HTS replicate 1, parasite screen 1 µg/mL
[2] = HTS replicate 2, parasite screen 1 µg/mL
[3] = HTS, parasite screen at 1 µg/mL, replicate 1
[4] = HTS, parasite screen at 1 µg/mL
[5] = HTS, parasite screen at 1 µg/mL, replicate 2

CCC(C)C1NC(=O)c2c1n(C)c1ccccc1c2=O (stereo not shown) [Quinolactacin A1]
T.vaginalis_%inb_Rep1 [1]: 10.96%
T.vaginalis_%inb_Rep2 [2]: 16.33%

COc1c2c(cc3c1c(=O)c1ccccc1n3C)OCO2 [Evoxanthine]
T.vaginalis_%inb_Rep1 [3]: 15.29%
T.vaginalis_Absorbance_Rep1 [4]: 0.993
T.vaginalis_%inb_Rep2 [5]: 5.42%
T.vaginalis_Absorbance_Rep2 [4]: 0.695

CC[C@H]1CCC[C@H](O)[C@@H](C)C(=O)C2=C[C@H]3[C@@H]4C[C@H](O)C[C@H]4CC[C@H]3[C@@H]2CC(=O)O1 [Dihydrospinosyn A aglycone]
T.vaginalis_%inb_Rep1 [3]: 13.89%
T.vaginalis_Absorbance_Rep1 [4]: 0.967
T.vaginalis_%inb_Rep2 [5]: 12.58%
T.vaginalis_Absorbance_Rep2 [4]: 0.794

C[C@@H](O)CCCCCCCCCCCCCc1cc(O)cc(O)c1C(=O)O [Phanerosporic acid]
T.vaginalis_%inb_Rep1 [1]: 18.46%
T.vaginalis_%inb_Rep2 [2]: 9.81%

CC1(C)CCC[C@]2(C)[C@@H](CO)C(CO)=CC[C@@H]12 [Drimendiol]
T.vaginalis_%inb_Rep1 [3]: 13.84%
T.vaginalis_Absorbance_Rep1 [4]: 0.966
T.vaginalis_%inb_Rep2 [5]: 11.64%
T.vaginalis_Absorbance_Rep2 [4]: 0.781

CC[C@H](C)C[C@H](C)CCCCCCCCC(=O)N[C@H]1C[C@@H](O)[C@@H](O)NC(=O)[C@@H]2[C@@H](O)CCN2C(=O)[C@H]([C@H](O)CC(N)=O)NC(=O)[C@H]([C@H](O)[C@@H](O)c2ccc(O)cc2)NC(=O)[C@@H]2C[C@@H](O)CN2C(=O)[C@H]([C@@H](C)O)NC1=O [Pneumocandin B0] ({Tetradecanoyl(10R,12S-Me2)}-[Orn(4R-OH,5R-OH)]T[Hyp][hTyr(3S-OH,4S-OH)][Gln(3R-OH)][Pro(3S-OH)]; lactam 1-C)
T.vaginalis_%inb_Rep1 [1]: 10.50%
T.vaginalis_%inb_Rep2 [2]: 8.92%

C[C@@H]1C=C2C(=O)O[C@@H]3CC[C@H](C1)[C@]23O [Galiellalactone]
T.vaginalis_%inb_Rep1 [3]: 19.07%
T.vaginalis_Absorbance_Rep1 [4]: 1.078
T.vaginalis_%inb_Rep2 [5]: 5.71%
T.vaginalis_Absorbance_Rep2 [4]: 0.724

Cc1cc(=O)n2c3c(c4c(cc13)c(CO)cc(=O)n4C)OC2 [Nybomycin]
T.vaginalis_%inb_Rep1 [1]: 11.05%
T.vaginalis_%inb_Rep2 [2]: 10.26%

CCc1c(O)c(C)c(C(C)CC)oc1=O (stereo not shown) [Germicidin A]
T.vaginalis_%inb_Rep1 [3]: 11.41%
T.vaginalis_Absorbance_Rep1 [4]: 0.927
T.vaginalis_%inb_Rep2 [5]: 12.19%
T.vaginalis_Absorbance_Rep2 [4]: 0.825

ikarugamycin [reference compound]
T. vaginalis HTS result in words: supported the anti-trichomonal activity

CC1=CCCC(C)C(O)C(C)C(O)CCC=CC(C)C(O)C=CC(C)C(O)C(C)=CC(O[C@H]2O[C@H](CO)[C@@H](O)[C@H](O)[C@@H]2O)C(O)CC(O)CC(O)CC(O)C(C)C(O)C(C)C(O)CC(O)CC(O)C=CCC(C(C)C(O)CCCN)OC1=O (stereo partly shown) [Desertomycin A]
T.vaginalis_%inb_Rep1 [3]: 12.39%
T.vaginalis_Absorbance_Rep1 [4]: 0.939
T.vaginalis_%inb_Rep2 [5]: 12.87%
T.vaginalis_Absorbance_Rep2 [4]: 0.798

NC(=O)c1cccc2nc3ccccc3nc12 [Oxychloroaphine]
T.vaginalis_%inb_Rep1 [1]: 11.41%
T.vaginalis_%inb_Rep2 [2]: 13.92%

CC[C@@H]1CCN[C@H](C(=O)N[C@@H]([C@H]2O[C@H](SC)[C@H](O)[C@@H](O)[C@H]2O)[C@H](C)Cl)C1 [Pirlimycin]
T.vaginalis_%inb_Rep1 [1]: 5.02%
T.vaginalis_%inb_Rep2 [2]: 5.77%

COC1=C(OC)C(O)C(C)C(C)C1=O (stereo not shown) [Glioroseinol]
T.vaginalis_%inb_Rep1 [3]: 11.16%
T.vaginalis_Absorbance_Rep1 [4]: 0.922
T.vaginalis_%inb_Rep2 [5]: 1.92%
T.vaginalis_Absorbance_Rep2 [4]: 0.665

COCC(=O)N[C@@H](C(=O)N1NCCC[C@H]1C(=O)N[C@@H](Cc1ccccc1)[C@@H](O)[C@H](C)C(=O)N[C@H]1CCN(C(N)=O)C1=O)[C@H](O)C(C)C [Padanamide A]
T.vaginalis_%inb_Rep1 [1]: 15.72%
T.vaginalis_%inb_Rep2 [2]: 10.52%

Nc1cc2nc3ccccc3oc-2cc1=O [Questiomycin A]
T.vaginalis_%inb_Rep1 [1]: 16.02%
T.vaginalis_%inb_Rep2 [2]: 12.32%

CN(C)C1C(=O)C(C(=O)NCN2CCN(CCO)CC2)=C(O)C2(O)C(=O)C3=C(O)c4c(O)cccc4C(C)(O)C3CC12 (stereo not shown) [Pipacycline]
T.vaginalis_%inb_Rep1 [1]: 11.66%
T.vaginalis_%inb_Rep2 [2]: 12.19%

CCC1NC(=O)C(NC(=O)c2ncccc2O)C(C)OC(=O)C(c2ccccc2)NC(=O)C2CC(=O)CCN2C(=O)C(Cc2ccccc2)N(C)C(=O)C2CCCN2C1=O (stereo not shown) [Virginiamycin S1]
T.vaginalis_%inb_Rep1 [3]: 9.96%
T.vaginalis_%inb_Rep2 [5]: 3.72%

COc1cc([C@H]2[C@@]3(O)[C@H](O)[C@H]4C[C@]2(O)[C@](O)(C(=O)O4)[C@H]3C(=O)c2ccccc2)oc(=O)c1 [Enterocin]
T.vaginalis_%inb_Rep1 [3]: 13.08%
T.vaginalis_Absorbance_Rep1 [4]: 0.96
T.vaginalis_%inb_Rep2 [5]: 12.38%
T.vaginalis_Absorbance_Rep2 [4]: 0.828

C/C=C(\C)c1c(Cl)c(OC)c(C)c2c1Oc1c(Cl)c(O)c(Cl)c(C)c1C(=O)O2 [Nidulin]
T.vaginalis_%inb_Rep1 [1]: 13.95%
T.vaginalis_%inb_Rep2 [2]: 15.46%

CN(C)C1C(=O)C(C(N)=O)=C(O)C2(O)C(=O)C3=C(O)c4c(O)ccc(Cl)c4C(C)(O)C3CC12.Cl (stereo not shown) [Epichlortetracycline hydrochloride]
T.vaginalis_%inb_Rep1 [3]: 7.49%
T.vaginalis_Absorbance_Rep1 [4]: 0.848
T.vaginalis_%inb_Rep2 [5]: 3.76%
T.vaginalis_Absorbance_Rep2 [4]: 0.672

Elaiophylin
T.vaginalis_Absorbance_Rep1 [4]: 0.954
T.vaginalis_Absorbance_Rep2 [4]: 0.689

CCCN1C[C@H](C)[C@@H](O)[C@](C)(O)[C@@H](CC)OC(=O)[C@H](C)[C@@H](O[C@H]2C[C@@](C)(OC)[C@@H](O)[C@H](C)O2)[C@H](C)[C@@H](O[C@@H]2O[C@H](C)C[C@H](N(C)C)[C@H]2O)[C@](C)(O)C[C@H]1C [Gamithromycin]
T.vaginalis_%inb_Rep1 [3]: 5.73%
T.vaginalis_Absorbance_Rep1 [4]: 0.815
T.vaginalis_%inb_Rep2 [5]: 7.95%
T.vaginalis_Absorbance_Rep2 [4]: 0.759

COc1ccc2nc(C(=O)N[C@@H]3COC(=O)[C@H](C(C)(C)O)N(C)C(=O)CN(C)C(=O)CNC(=O)[C@@H]4[C@@H](OC(C)=O)CC=NN4C(=O)[C@H](NC(=O)c4nc5ccc(OC)cc5cc4O)COC(=O)[C@H](C(C)(C)O)N(C)C(=O)CN(C)C(=O)CNC(=O)[C@@H]4[C@@H](OC(C)=O)CC=NN4C3=O)c(O)cc2c1 [luzopeptin A, reference compound]
T. vaginalis HTS result in words: partial hits

CCC(O)C(C)(O)C1OC(=O)C(C)C(OC2CC(C)(OC)C(O)C(C)O2)C(C)C(OC2OC(C)CC(N(C)C)C2O)C2(C)CC(C)=C(O2)C1C (stereo not shown) [Pseudoerythromycin A enol ether]
T.vaginalis_%inb_Rep1 [1]: 13.84%
T.vaginalis_%inb_Rep2 [2]: 5.58%

C/C=C(/C)c1cc(O)c(C)c2c1Oc1c(C)c(O)cc(/C(C)=C\C)c1C(=O)O2 [Folipastatin]
T.vaginalis_%inb_Rep1 [3]: 12.58%
T.vaginalis_Absorbance_Rep1 [4]: 0.95
T.vaginalis_%inb_Rep2 [5]: 14.11%
T.vaginalis_Absorbance_Rep2 [4]: 0.855

CC(=O)c1c(O)cc(O)c(C(C)=O)c1O [Diacetylphloroglucinol]
T.vaginalis_%inb_Rep1 [3]: 9.32%
T.vaginalis_Absorbance_Rep1 [4]: 0.882
T.vaginalis_%inb_Rep2 [5]: 10.70%
T.vaginalis_Absorbance_Rep2 [4]: 0.768

CC1(C)CC[C@]2(C)CC[C@]3(C)C4=CC[C@H]5C(C)(C)[C@@H](O)CC[C@]5(C)[C@H]4CC[C@@]3(C)[C@@H]2C1 [Multiflorenol]
T.vaginalis_%inb_Rep1 [1]: 10.55%
T.vaginalis_%inb_Rep2 [2]: 11.42%

COc1cc(O)c2c(=O)oc3c(O)c(OC)cc(C)c3c2c1 [Graphislactone A]
T.vaginalis_%inb_Rep1 [3]: 13.44%
T.vaginalis_Absorbance_Rep1 [4]: 0.967
T.vaginalis_%inb_Rep2 [5]: 16.48%
T.vaginalis_Absorbance_Rep2 [4]: 0.892

O=c1[nH]c2ccccc2c(-c2cccc(O)c2)c1O [Viridicatol]
T.vaginalis_%inb_Rep1 [3]: 6.71%
T.vaginalis_%inb_Rep2 [5]: 14.99%

Cc1c2c(c(O)c3c(O)ccc(Cl)c13)C(=O)C1(O)C(O)=C(C(N)=O)C(=O)C(N(C)C)C1C2.Cl (stereo not shown)
T.vaginalis_%inb_Rep1 [3]: 10.90%
T.vaginalis_Absorbance_Rep1 [4]: 0.917
T.vaginalis_%inb_Rep2 [5]: 9.56%
T.vaginalis_Absorbance_Rep2 [4]: 0.784

Pyripyropene A
T.vaginalis_%inb_Rep1 [1]: 11.61%
T.vaginalis_%inb_Rep2 [2]: 12.83%

CCCC[C@H](O)[C@@H]1CC(OC)=CC(=O)O1 [Pestalotin]
T.vaginalis_%inb_Rep1 [1]: 11.05%
T.vaginalis_%inb_Rep2 [2]: 11.16%

CC(=O)c1c(O)cc(O)cc1O [Monoacetylphloroglucinol]
T.vaginalis_%inb_Rep1 [1]: 4.36%
T.vaginalis_%inb_Rep2 [2]: 14.18%

COc1c(Cl)c(O)c(Cl)c(C)c1C(=O)O[C@H]1[C@H](O)C[C@H](O[C@H]2[C@@H](O)CC(=O)O[C@@H]2C)O[C@@H]1C [Flambalactone]
T.vaginalis_%inb_Rep1 [3]: 13.89%
T.vaginalis_Absorbance_Rep1 [4]: 0.967
T.vaginalis_%inb_Rep2 [5]: 13.52%
T.vaginalis_Absorbance_Rep2 [4]: 0.807

COc1cc(CC2C(=O)OCC2Cc2ccc3c(c2)OCO3)ccc1O (stereo not shown) [Pluviatolide]
T.vaginalis_%inb_Rep1 [1]: 12.12%
T.vaginalis_%inb_Rep2 [2]: 14.37%

COc1cc2c(oc(=O)c3cc(C)cc(OC)c32)c2c(C3OC(C(C)O)C(O)C3O)ccc(O)c12 (stereo not shown) [Gilvocarcin M]
T.vaginalis_%inb_Rep1 [3]: 10.14%
T.vaginalis_Absorbance_Rep1 [4]: 0.902
T.vaginalis_%inb_Rep2 [5]: 13.92%
T.vaginalis_Absorbance_Rep2 [4]: 0.852

C=C(NC(=O)C(=C)NC(=O)c1ccc2c(n1)-c1coc(n1)C(=C)NC(=O)C(=C)NC(=O)c1nc(oc1C)C(=C)NC(=O)C(C(C)(C)O)NC(=O)C(=C)NC(=O)c1coc(n1)/C(=C/C)NC(=O)[C@H]([C@@H](C)O)NC(=O)c1csc-2n1)C(N)=O (stereo partly shown) [Geninthiocin]
T.vaginalis_%inb_Rep1 [3]: 14.25%
T.vaginalis_Absorbance_Rep1 [4]: 0.983
T.vaginalis_%inb_Rep2 [5]: 12.51%
T.vaginalis_Absorbance_Rep2 [4]: 0.83

COC1=C(OC)C(=O)C(C)=CC1=O [Fumigatin methylether]
T.vaginalis_%inb_Rep1 [3]: 13.18%
T.vaginalis_Absorbance_Rep1 [4]: 0.962
T.vaginalis_%inb_Rep2 [5]: 9.62%
T.vaginalis_Absorbance_Rep2 [4]: 0.785

CN1CCC2(c3cccc4c3NC3N(C)CCC43c3cccc4c3NC3N(C)CCC43C34CCN(C)C3Nc3c(C56CCN(C)C5Nc5ccccc56)cccc34)c3ccccc3NC12 (stereo not shown) [Psychotridine]
T.vaginalis_%inb_Rep1 [1]: 9.23%
T.vaginalis_%inb_Rep2 [2]: 6.15%

CCC/C=C/C=C/C1C[C@@H](O)[C@@H](O)C(=O)[C@H]1C=O (stereo partly shown) [Frequentin]
T.vaginalis_%inb_Rep1 [3]: 13.62%
T.vaginalis_Absorbance_Rep1 [4]: 0.962
T.vaginalis_%inb_Rep2 [5]: 7.74%
T.vaginalis_Absorbance_Rep2 [4]: 0.727
